Here are results for 1 compound from patent US20120040976A1, “SMALL MOLECULE IMMUNOMODULATORS FOR ALZHEIMER'S DISEASE” (HUMAN BIOMOLECULAR RESEARCH INSTITUTE, priority 2008, published 2012).

Usually IC50 stands for the concentration at which inhibition is half-maximal. A low value points to higher potency.

Structures are written as SMILES.

For data set [1], the system named is VDR. The data set is described as follows: VDR gene expression by qPCR in U-937 human monocytic cells treated with curcumins plus Aβ. Format: cell-based. The protocol: (§1) Cell culture conditions for monocytic cell lines. Human and mouse monocyte cell lines are grown in RPMI-1640 medium with 10% fetal bovine serum (FBS), plus glutamine and pen/strep. For treatment with compounds (curcuminoids+/−Aβ), replicate sets of 0.5-1.0 mL cultures containing 1-2×10^6 cells are set up in the wells of 48-well tissue culture plates. Both replicate sets have at least one control well receiving no added curcuminoid to provide baseline expression controls for untreated, and Aβ-only treated cells. Remaining wells receive curcuminoid in a range of 10-fold serial dilutions in DMSO, typically from […] Cultures are incubated for 20-24 hours (“overnight”) at 37° C. in atmosphere with 5% CO2. After one overnight, to one of replicate sets of cultures is added Aβ (1-42) peptide to a final concentration of 5 μg/mL.
(§2) RNA isolation and cDNA synthesis. After the first overnight incubation in the presence of curcuminoid, cells from one replicate set of wells are collected by centifugation. RNAs are extracted from pelleted cells using miniprep column kits following manufacturer's protocol for animal cells. […] of total cellular RNA from each well is quantitated using a Nanodrop spectrophotometer, and first-strand total cDNA is prepared from 0.3-1.0 μg RNA by random-hexamer priming. Following the second 20 hr. incubation in the presence of Aβ, RNA extractions and cDNA synthesis are similarly performed.
(§3) Assay development. Gene-specific mRNA levels are determined using a real-time thermocycler, and by normalizing to expression of one or more control genes. Assays for quantifying mRNA levels are based on gene sequences reported in NCBI Genbank. PCR oligonucleotide primers are selected spanning introns to minimize the opportunity for amplication from any contaminating genomic DNA in the RNA preps. Oligonucleotides are typically tested and used at a concentration of 200 nM in qPCR reactions containing SYBR dye. Control reactions include template from cDNA synthesis reactions either + or − reverse transcriptase (RT), as well as no-template controls (ntc). All reactions are performed in triplicate. Reactions are typically run with 40 cycles of 95° C. (10 sec) and 58° C. (30 sec). Melt curves based on incremental 0.5° C. increases are determined for new assays to test for uniformity of amplified products. Reaction conditions are modified as needed depending on initial test results. ‘Working’ assays are selected based on clear RNA-dependent amplification and absence of product in ‘ntc’ reactions. The following assay primers are used: […]
(§4) qPCR reactions of cultured monocyte cDNAs. One μL total cellular cDNA per reaction is used in triplicate reactions for each test gene, and for each culture treatment. SYBR-Green reactions were run on a Continuous Fluorescence real-time thermocycler and analyzed. Cycle threshold (Ct) values are recorded for each replicate reaction, and are then averaged and normalized against mean Ct values from one or more control genes. Fold-expression differences relative to untreated cells are determined using the 2^−ΔΔCt method as previously described. Data from the curcumin concentration range are plotted in order to determine EC50 values (concentrations producing one-half maximal stimulant activity), which are used for comparisons of potency between different compounds. Data are also evaluated for each gene with regard to sensitivity, maximally effective concentration of curcuminoid, response to Aβ, and overall magnitude of fold-expression changes.
(§5) Data showing in vitro up-regulation of genes associated with Aβ phagocytosis in response to curcumins. Natural curcumins and synthetic analogs were tested in U-937 human monocyte cells in vitro for their ability to modulate expression of the genes MGAT3 and TLRs −2, −3, and −4. […]
Background: Quantitative PCR measures a nucleic acid by following its amplification.

The nature of data set [2]: Chemical stability (H2O, pH 7.4). It is filed as physicochemical.
In data set [3] the test system is MGAT3. The data set is described as follows: MGAT3 gene expression by qPCR in U-937 human monocytic cells treated with curcumins plus Aβ. It is filed as cell-based. The settings on record: human monocytic cells (U-937), curcumin plus Aβ. The protocol: as §1, §2
as §3, with “All reactions are performed in triplicate. Reactions are typically run with 40 cycles of 95° C. (10 sec) and 58° C. (30 sec).” left out, “products.” for “products. Reaction conditions are modified as needed depending on initial test results. ‘Working’ assays are selected based on clear RNA-dependent amplification and absence of product in ‘ntc’ reactions. The following assay primers are used:”
qPCR reactions of cultured monocyte cDNAs. […] SYBR-Green reactions were run on a Continuous Fluorescence real-time thermocycler and analyzed. Cycle threshold (Ct) values are recorded for each replicate reaction, and are then averaged and normalized against mean Ct values from one or more control genes. Fold-expression differences relative to untreated cells are determined using the 2^−ΔΔCt method as previously described. […] Data are also evaluated for each gene with regard to sensitivity, maximally effective concentration of curcuminoid, response to Aβ, and overall magnitude of fold-expression changes. […]

Data set [4] relates to TLR2. The data set is described as follows: TLR2 gene expression by qPCR in U-937 human monocytic cells treated with curcumins plus Aβ. Format: cell-based. The protocol: as §1, §2, §3
(§6) qPCR reactions of cultured monocyte cDNAs. One μL total cellular cDNA per reaction is used in triplicate reactions for each test gene, and for each culture treatment. SYBR-Green reactions were run on a Continuous Fluorescence real-time thermocycler and analyzed. Cycle threshold (Ct) values are recorded for each replicate reaction, and are then averaged and normalized against mean Ct values from one or more control genes. Fold-expression differences relative to untreated cells are determined using the 2^−ΔΔCt method as previously described. […] Data are also evaluated for each gene with regard to sensitivity, maximally effective concentration of curcuminoid, response to Aβ, and overall magnitude of fold-expression changes. […]

The nature of data set [5]: Metabolic stability in human liver microsomes. Format: in vitro ADME. The settings on record: human, read-out: Half life, t1/2 HLM. A general note: Liver microsomes are a subcellular fraction often used to study metabolism.
Data set [6] has as its system ALS PBMCs. The data set is described as follows: Mutant SOD-1 induced polarization of ALS PBMCs to the Th17 type. It is filed as cell-based, human. An excerpt:
(§7) More recently, it was shown that PBMCs isolated from ALS patients, and to a lesser extent from control subjects, strongly express COX-2 and other cytokines after stimulation with aggregated wild-type or mutant SOD-1. […] It was also shown that mutant SOD-1 induced polarization of ALS PBMCs to the Th17 type, but the induction was inhibited by 10.

Data set [7] relates to TLR4. As to the kind of experiment: TLR4 gene expression by qPCR in U-937 human monocytic cells treated with curcumins plus Aβ. Format: cell-based. The protocol:
as §1, §2, §3, §6

Data set [8] concerns TLR3. The data set is described as follows: TLR3 gene expression by qPCR in U-937 human monocytic cells treated with curcumins plus Aβ. It is filed as cell-based. The protocol:
as §1, §2, §3, §4, §5

Data set [9] in a line: Metabolic stability in human S9 fraction. It is filed as in vitro ADME. The settings on record: read-out: Half life, t1/2 S9.
Data set [10] is described as follows: Anti-oxidant activity.
For data set [11], the system named is COX-2. As to the kind of experiment: Inhibition of SOD1-induced COX-2 expression in ALS PBMCs. Format: cell-based, human. The settings on record: aggregated wild-type or mutant SOD-1.
Source text: as §7

[12] abbreviates: human monocytic cells (U-937), curcumin plus Aβ.

With `CN(C)c1ccc(/C=C/C(O)=C2\CCC/C(=C\c3ccc(N(C)C)cc3)C2=O)cc1` [Compound 10], the VDR expression increase in data set [1] (human monocytes, plus Aβ (FIG. 5)) was 10^3 fold. In addition, the “Relative gene expression VDR, increased expression relative to control cells” value in [1] (setting [12]) was “+++++ ((+++++) >1000-fold)”. In data set [2] (H2O), the “Chemical stability H2O (stable/unstable)” value was “stable (stability half-lives greater than 5 hours)”. In data set [2] (chemical and metabolic stability), the “Stability compared with BDC (in words)” value is given as “markedly greater stability than BDC”. Besides, the “Chemical stability pH 7.4 (stable/unstable)” value in data set [2] (pH 7.4) was “stable (stability half-lives greater than 5 hours)”. The “Relative gene expression MGAT3, increased expression relative to control cells” value in [3] is recorded as “+++ ((+++) >40-fold)”. The “Concentration giving maximal TLR2 expression” value in data set [4] (U-937, in the presence of Aβ (FIG. 2)) is 1 nM. Moreover, the “Relative gene expression TLR2, increased expression relative to control cells” value in [4] (setting [12]) is “++ ((++) >20-fold)”. Moreover, the figures for the half-life in [5] and in [9] were 2.11 h and 5.18 h, respectively. Moreover, the “Induction of Th17 polarization by mutant SOD-1” value in [6] is listed as “inhibited”. For the same compound, the “Concentration giving maximal TLR4 response” value in data set [7] (U-937, plus Aβ (FIG. 4)) is “approximately 10 nM”. In addition, in [7] (setting [12]), the “Relative gene expression TLR4, increased expression relative to control cells” value is given as “+ ((+) <20-fold)”. Besides, the “TLR3 expression response (in words)” value in [8] (U-937, plus Aβ (FIG. 3)) is “considerably higher expression”. The “Relative gene expression TLR3, increased expression relative to control cells” value in [8] (setting [12]) is reported as “+++ ((+++) >40-fold)”. In data set [10], this compound came in with a half-inhibitory concentration (IC50) of 155 µM. Also, the “Induction of COX-2 by SOD-1 after pretreatment” value in data set [11] was “blocked”.
